Converted amounts (≈) assume the structure as drawn.
Each molecule was assayed on Mycobacterium tuberculosis (assay: Antitubercular activity against Mycobacterium tuberculosis).
Assay type: functional

Going from `Cc1ccccc1/C=C1\CN(C)C[C@@]2(C1=O)[C@H](c1ccccc1C)[C@@H]1CSCN1[C@@]21C(=O)Nc2ccc([N+](=O)[O-])cc21` to `Cc1ccccc1/C=C1\CN(C)C[C@@]2(C1=O)[C@H](c1ccccc1C)[C@@H]1CSCN1[C@@]21C(=O)Nc2ccc(Cl)cc21`, the MIC rises from 5.3 µM (≈ 3.08 µg/mL) to 11 µM (≈ 6.27 µg/mL) (2.1-fold).

`COc1ccc(/C=C2\CN(C)C[C@@]3(C2=O)[C@H](c2ccc(OC)cc2OC)[C@@H]2CSCN2[C@@]32C(=O)Nc3ccccc32)c(OC)c1` and `COc1ccc(/C=C2\CN(C)C[C@@]3(C2=O)[C@H](c2ccc(OC)cc2OC)[C@@H]2CSCN2[C@@]32C(=O)Nc3ccc(Cl)cc32)c(OC)c1` are within 1.5-fold of each other in MIC: 19.9 µM (≈ 12.5 µg/mL) for the first, 18.9 µM (≈ 12.5 µg/mL) for the second.

Compared with `CN1C/C(=C\c2ccc(F)cc2)C(=O)[C@]2(C1)[C@H](c1ccc(F)cc1)[C@@H]1CSCN1[C@@]21C(=O)Nc2ccc([N+](=O)[O-])cc21`, `CN1C/C(=C\c2ccc(F)cc2)C(=O)[C@]2(C1)[C@H](c1ccc(F)cc1)[C@@H]1CSCN1[C@@]21C(=O)Nc2ccc(Cl)cc21` is 2-fold higher in MIC: 1.4 µM (≈ 0.824 µg/mL) for the first, 2.8 µM (≈ 1.62 µg/mL) for the second.

Compared with `COc1ccccc1/C=C1\CN(C)C[C@@]2(C1=O)[C@H](c1ccccc1OC)[C@@H]1CSCN1[C@@]21C(=O)Nc2ccc(Cl)cc21`, `COc1ccccc1/C=C1\CN(C)C[C@@]2(C1=O)[C@H](c1ccccc1OC)[C@@H]1CSCN1[C@@]21C(=O)Nc2ccc([N+](=O)[O-])cc21` is 4.1-fold lower in MIC: 20.8 µM (≈ 12.5 µg/mL) for the first, 5.1 µM (≈ 3.12 µg/mL) for the second.

Going from `CN1C/C(=C\c2ccccc2Cl)C(=O)[C@]2(C1)[C@H](c1ccccc1Cl)[C@@H]1CSCN1[C@@]21C(=O)Nc2ccc([N+](=O)[O-])cc21` to `CN1C/C(=C\c2ccccc2Cl)C(=O)[C@]2(C1)[C@H](c1ccccc1Cl)[C@@H]1CSCN1[C@@]21C(=O)Nc2ccc(Cl)cc21`, the MIC rises from 2.6 µM (≈ 1.62 µg/mL) to 5.1 µM (≈ 3.12 µg/mL) (2-fold).

`COc1ccc(/C=C2\CN(C)C[C@@]3(C2=O)[C@H](c2ccc(OC)cc2)[C@@H]2CSCN2[C@@]32C(=O)Nc3ccccc32)cc1` and `COc1ccc(/C=C2\CN(C)C[C@@]3(C2=O)[C@H](c2ccc(OC)cc2)[C@@H]2CSCN2[C@@]32C(=O)Nc3ccc(Cl)cc32)cc1` are within 1.5-fold of each other in MIC: 22 µM (≈ 12.5 µg/mL) for the first, 20.8 µM (≈ 12.5 µg/mL) for the second.

First: CN1C/C(=C\c2ccc(Cl)cc2Cl)C(=O)[C@]2(C1)[C@H](c1ccc(Cl)cc1Cl)[C@@H]1CSCN1[C@@]21C(=O)Nc2ccccc21
Second: CN1C/C(=C\c2ccc(Cl)cc2Cl)C(=O)[C@]2(C1)[C@H](c1ccc(Cl)cc1Cl)[C@@H]1CSCN1[C@@]21C(=O)Nc2ccc(Cl)cc21
The MIC of the first is 3.9-fold higher: 4.7 µM (≈ 3.03 µg/mL) for the first, 1.2 µM (≈ 0.816 µg/mL) for the second.

Compared with `CN1C/C(=C\c2ccccc2-c2cccs2)C(=O)[C@]2(C1)[C@H](c1ccccc1-c1cccs1)[C@@H]1CSCN1[C@@]21C(=O)Nc2ccc([N+](=O)[O-])cc21`, `CN1C/C(=C\c2ccccc2-c2cccs2)C(=O)[C@]2(C1)[C@H](c1ccccc1-c1cccs1)[C@@H]1CSCN1[C@@]21C(=O)Nc2ccc(Cl)cc21` is 2.1-fold higher in MIC: 5.5 µM (≈ 3.94 µg/mL) for the first, 11.4 µM (≈ 8.05 µg/mL) for the second.

`CN1C/C(=C\c2ccc(Cl)cc2)C(=O)[C@]2(C1)[C@H](c1ccc(Cl)cc1)[C@@H]1CSCN1[C@@]21C(=O)Nc2ccccc21` and `CN1C/C(=C\c2ccc(Cl)cc2)C(=O)[C@]2(C1)[C@H](c1ccc(Cl)cc1)[C@@H]1CSCN1[C@@]21C(=O)Nc2ccc(Cl)cc21` are within 1.5-fold of each other in MIC: 5.4 µM (≈ 3.11 µg/mL) for the first, 5.1 µM (≈ 3.12 µg/mL) for the second.

First: Cc1ccc(/C=C2\CN(C)C[C@@]3(C2=O)[C@H](c2ccc(C)cc2)[C@@H]2CSCN2[C@@]32C(=O)Nc3ccc(Cl)cc32)cc1
Second: Cc1ccc(/C=C2\CN(C)C[C@@]3(C2=O)[C@H](c2ccc(C)cc2)[C@@H]2CSCN2[C@@]32C(=O)Nc3ccc([N+](=O)[O-])cc32)cc1
The MIC of the first is 2.1-fold higher: 11 µM (≈ 6.27 µg/mL) for the first, 5.3 µM (≈ 3.08 µg/mL) for the second.

First: Cc1ccccc1/C=C1\CN(C)C[C@@]2(C1=O)[C@H](c1ccccc1C)[C@@H]1CSCN1[C@@]21C(=O)Nc2ccccc21
Second: CN1C/C(=C\c2ccccc2Cl)C(=O)[C@]2(C1)[C@H](c1ccccc1Cl)[C@@H]1CSCN1[C@@]21C(=O)Nc2ccccc21
The MIC of the first is 2.1-fold higher: 23.3 µM (≈ 12.5 µg/mL) for the first, 10.9 µM (≈ 6.28 µg/mL) for the second.

Going from `CC[C@@H](CO)NCCN[C@@H](CC)CO` [ETHAMBUTOL] to `NNC(=O)c1ccncc1` [ISONIAZID], the MIC falls from 7.6 µM (≈ 1.55 µg/mL) to 0.4 µM (≈ 0.0549 µg/mL) (19-fold).

Going from `CN1C/C(=C\c2ccccc2-c2cccs2)C(=O)[C@]2(C1)[C@H](c1ccccc1-c1cccs1)[C@@H]1CSCN1[C@@]21C(=O)Nc2ccccc21` to `COc1ccccc1/C=C1\CN(C)C[C@@]2(C1=O)[C@H](c1ccccc1OC)[C@@H]1CSCN1[C@@]21C(=O)Nc2ccccc21`, the MIC rises from 12.1 µM (≈ 8.13 µg/mL) to 22 µM (≈ 12.5 µg/mL) (1.8-fold).

Compared with `CN1C/C(=C\c2ccc(F)cc2)C(=O)[C@]2(C1)[C@H](c1ccc(F)cc1)[C@@H]1CSCN1[C@@]21C(=O)Nc2ccccc21`, `Cc1ccc(/C=C2\CN(C)C[C@@]3(C2=O)[C@H](c2ccc(C)cc2)[C@@H]2CSCN2[C@@]32C(=O)Nc3ccccc32)cc1` is 4.1-fold higher in MIC: 5.7 µM (≈ 3.1 µg/mL) for the first, 23.3 µM (≈ 12.5 µg/mL) for the second.

`COc1ccc(/C=C2\CN(C)C[C@@]3(C2=O)[C@H](c2ccc(OC)cc2OC)[C@@H]2CSCN2[C@@]32C(=O)Nc3ccc([N+](=O)[O-])cc32)c(OC)c1` and `COc1ccc(/C=C2\CN(C)C[C@@]3(C2=O)[C@H](c2ccc(OC)cc2)[C@@H]2CSCN2[C@@]32C(=O)Nc3ccc([N+](=O)[O-])cc32)cc1` are within 1.5-fold of each other in MIC: 9.4 µM (≈ 6.32 µg/mL) for the first, 10.3 µM (≈ 6.31 µg/mL) for the second.

`CC(C)c1ccc(/C=C2\CN(C)C[C@@]3(C2=O)[C@H](c2ccc(C(C)C)cc2)[C@@H]2CSCN2[C@@]32C(=O)Nc3ccccc32)cc1` and `CC(C)c1ccc(/C=C2\CN(C)C[C@@]3(C2=O)[C@H](c2ccc(C(C)C)cc2)[C@@H]2CSCN2[C@@]32C(=O)Nc3ccc(Cl)cc32)cc1` are within 1.5-fold of each other in MIC: 10.6 µM (≈ 6.27 µg/mL) for the first, 10.1 µM (≈ 6.33 µg/mL) for the second.

Compared with `CN1C/C(=C\c2ccc(Br)cc2)C(=O)[C@]2(C1)[C@H](c1ccc(Br)cc1)[C@@H]1CSCN1[C@@]21C(=O)Nc2ccc(Cl)cc21`, `CN1C/C(=C\c2ccc(Br)cc2)C(=O)[C@]2(C1)[C@H](c1ccc(Br)cc1)[C@@H]1CSCN1[C@@]21C(=O)Nc2ccc([N+](=O)[O-])cc21` is 4-fold lower in MIC: 4.4 µM (≈ 3.08 µg/mL) for the first, 1.1 µM (≈ 0.781 µg/mL) for the second.

Compared with `CN1C/C(=C\c2ccc(Cl)cc2)C(=O)[C@]2(C1)[C@H](c1ccc(Cl)cc1)[C@@H]1CSCN1[C@@]21C(=O)Nc2ccc([N+](=O)[O-])cc21`, `CN1C/C(=C\c2ccccc2)C(=O)[C@]2(C1)[C@H](c1ccccc1)[C@@H]1CSCN1[C@@]21C(=O)Nc2ccc([N+](=O)[O-])cc21` is 4.3-fold higher in MIC: 1.3 µM (≈ 0.808 µg/mL) for the first, 5.6 µM (≈ 3.09 µg/mL) for the second.

Going from `CN1C/C(=C\c2ccccc2)C(=O)[C@]2(C1)[C@H](c1ccccc1)[C@@H]1CSCN1[C@@]21C(=O)Nc2ccc(Cl)cc21` to `CN1C/C(=C\c2ccccc2)C(=O)[C@]2(C1)[C@H](c1ccccc1)[C@@H]1CSCN1[C@@]21C(=O)Nc2ccccc21`, the MIC rises from 23.1 µM (≈ 12.5 µg/mL) to 49.2 µM (≈ 25 µg/mL) (2.1-fold).

First: NC(=O)c1cnccn1 [PYRAZINAMIDE]
Second: CO[C@H]1/C=C/O[C@@]2(C)Oc3c(C)c(O)c4c(O)c(c(/C=N/N5CCN(C)CC5)c(O)c4c3C2=O)NC(=O)/C(C)=C\C=C\[C@H](C)[C@H](O)[C@@H](C)[C@@H](O)[C@@H](C)[C@H](OC(C)=O)[C@@H]1C [RIFAMPIN]
The MIC of the first is 510-fold higher: 50.8 µM (≈ 6.25 µg/mL) for the first, 0.1 µM (≈ 0.0823 µg/mL) for the second.

First: CN1C/C(=C\c2ccc(Br)cc2)C(=O)[C@]2(C1)[C@H](c1ccc(Br)cc1)[C@@H]1CSCN1[C@@]21C(=O)Nc2ccccc21
Second: CN1C/C(=C\c2ccc(Cl)cc2Cl)C(=O)[C@]2(C1)[C@H](c1ccc(Cl)cc1Cl)[C@@H]1CSCN1[C@@]21C(=O)Nc2ccc([N+](=O)[O-])cc21
The MIC of the first is 7.8-fold higher: 4.7 µM (≈ 3.13 µg/mL) for the first, 0.6 µM (≈ 0.414 µg/mL) for the second.
